{
  "source": "patent US11124881B2",
  "about": "“Hydrophilic metal surface treatment agent” (CHEMICAL DENSHI CO., LTD., priority 2019, dated 2021)",
  "assay": "Water-solubility test",
  "type": "physicochemical",
  "description": "The hydrophilic metal surface treatment agent (Compound 21) (MW 608.86, 0.32 g) produced in Example 3 was added to ultrapure water (50.09 g), and the mixture was stirred after the water temperature was heated to 60° C.\nWith respect to even the hydrophilic metal surface treatment agent having an octadecyl group, i.e. n-C18H37, as a long chain hydrocarbon group, an aqueous solution having a concentration of 10.32 mM could be prepared.",
  "data": [
    {"smiles": "CCCCCCCCCCCCCCCCCCSC(=O)CCC(=O)NC(COC(COC(CO)CO)COC(CO)CO)COC(COC(CO)CO)COC(CO)CO", "note": "[Compound 21]", "values": [
      {"measurement": "visible undissolved residue", "setting": "0.32 g in ultrapure water 50.09 g, stirred at 60° C., after 3 hours", "result": "no visible undissolved residue"},
      {"measurement": "concentration of aqueous solution that could be prepared", "setting": "ultrapure water, 60° C., no surfactant or solubilizing agent", "result": 10320, "unit": "µM"}
    ]}
  ]
}
